Test results: paper PMC7756341, “Liposomal FRET Assay Identifies Potent Drug‐Like Inhibitors of the Ceramide Transport Protein (CERT)” (Chemistry (Weinheim an Der Bergstrasse, Germany), 2020)
Values joined by “and” are separate entries in the source; they are usually repeats but may differ in a detail not shown here. Equal values may be shown once.

Tested on: HeLa cells
Assay: Sphingolipid content of treated HeLa cells by quantitative mass spectrometry
Format: cell-based
Conditions: for Cer16 / Cer18 / Cer20 / Cer22 / Cer24 / Cer24:1 / Cer total / S1P / SM16 / SM18 / SM20 / SM22 / SM24 / SM24:1 / SM total / Sph / ratio total SM/Cer: HeLa, 42h, single replicates; for Cer16 / Cer18 / Cer20 / Cer22 / Cer24 / Cer24:1 / Cer total / S1P / SM16 / SM18 / SM20 / SM22 / SM24 / SM24:1 / SM total / Sph: 500.000 cells per sample
Experimental: 5.2 Cellular experiment for lipidomic analysis
Hela cells were cultured in six well plates (177000 cells per well) under standard growth conditions (DMEM with 4mM L-glutamine, 10% FBS, 1% Penicillin-Streptomycin; CO2 incubator with […]
37°C, 5% CO2). […]
After incubation, […]
the adherent cells were washed twice with ice-cold PBS and harvested by treatment with trypsin.
Cells were counted using a Countess II cell counter ( Invitrogen) and adjusted to 500.000 cells per sample. Each sample was then treated as described below.
6. Details for experimental lipidomics
Cells were subjected to lipid extraction using 1.5 mL methanol/chloroform (2:1, v:v) as described. The extraction solvent contained C17-ceramide (Cer17) and C16 -d31-sphingomyelin (d31-SM16) (both Avanti Polar Lipids, Alabaster, USA) as internal standards. Chromatographic separations were achieved on a 1260 Infinity HPLC (Agilent Technologies, Waldbronn, Germany) equipped with a Poroshell 120 EC-C8 column (3.0 × 150 mm, 2.7 µm; Agilent Technologies). A mobile phase system consisting of water (solvent A) and acetonitrile/methanol (1:1, v:v; solvent B), both acidified with 0.1% formic acid, was used for gradient elution at an initial composition of 40:60 (A:B, v:v) and a flow rate of 0.5 mL/min. MS/MS analyses were carried out using a 6490 triple-quadrupole mass spectrometer (Agilent Technologies) operating in the positive electrospray ionization mode (ESI+). The following ion source parameters were set: sheath gas temperature, 375 °C; sheath gas flow, 12 L/min of nitrogen; nebulizer pressure, 30 psi; drying gas temperature, 200 °C; drying gas flow, 15 L/min of nitrogen; capillary voltage, 4000 V; nozzle voltage, 1500 V; iFunnel high pressure RF voltage, 150 V and iFunnel low pressure RF voltage, 60 V. The following mass transitions were recorded (collision energies of 25 eV for all transitions): ceramides: m/z […]
with MassHunter Software (Agilent Technologies). Significance of differences between two samples was calculated by student’s t -test. Asterisks indicate significant differences between treated and untreated samples: * p<0.05; ** p<0.01; *** p<0.005.
Table S1. Sphingolipid content of treated cells.
(1 picture or pasted object on this page, not shown here)

Q: Which “effect on sphingomyelin at 5 μM” value (HeLa cells, 5 μM) does the source give for O=C(NC1CCN(CCCCC2(C(=O)NCC(F)(F)F)c3ccccc3-c3ccccc32)CC1)c1ccccc1-c1ccc(C(F)(F)F)cc1 [8E8, lomitapide] here?
A: The value was “drastic reduction”.

Q: What about the “effect on total sphingomyelin” value (HeLa cells, 48 hours, serum-reduced medium) of the same compound?
A: Its value is “dose‐dependent reduction”.

Q: And the “potency on relation of total sphingomyelin to ceramide compared to HPA-12” value (HeLa cells, all concentrations)?
A: Its value is “increased potency”.

Q: What about the Cer16 (1 µM) of the same compound?
A: Its Cer16 is 66,02 pmol/sample and 57,09 pmol/sample and 60,15 pmol/sample.

Q: What about the Cer18 (1 µM) of the same compound?
A: Its Cer18 is 7,66 pmol/sample and 6,67 pmol/sample and 6,95 pmol/sample.

Q: What about the Cer20 (1 µM) of the same compound?
A: The Cer20 was 2,25 pmol/sample and 1,77 pmol/sample and 2,84 pmol/sample.

Q: What about the Cer22 (1 µM) of the same compound?
A: The Cer22 was 14,47 pmol/sample and 13,05 pmol/sample and 13,35 pmol/sample.

Q: And the Cer24 (1 µM)?
A: The Cer24 was 34,96 pmol/sample and 30,93 pmol/sample and 30,90 pmol/sample.

Q: What about the “Cer24:1” value (1 µM) of the same compound?
A: Its value is 73,09 pmol/sample and 65,48 pmol/sample and 68,22 pmol/sample.

Q: What about the Cer total (1 µM) of the same compound?
A: The Cer total was 198,45 pmol/sample and 178,06 pmol/sample and 179,34 pmol/sample.

Q: What about the S1P (1 µM) of the same compound?
A: Its S1P is 1,12 pmol/sample and 1,00 pmol/sample and 0,85 pmol/sample.

Q: What about the SM16 (1 µM) of the same compound?
A: The SM16 was 1825,61 pmol/sample and 1823,48 pmol/sample and 1739,12 pmol/sample.

Q: What about the SM18 (1 µM) of the same compound?
A: Its SM18 is 59,37 pmol/sample and 58,79 pmol/sample and 52,57 pmol/sample.

Q: What about the SM20 (1 µM) of the same compound?
A: Its SM20 is 20,60 pmol/sample and 20,35 pmol/sample and 17,81 pmol/sample.

Q: And the SM22 (1 µM)?
A: The SM22 was 115,26 pmol/sample and 124,65 pmol/sample and 105,99 pmol/sample.

Q: What about the SM24 (1 µM) of the same compound?
A: The SM24 was 173,05 pmol/sample and 183,46 pmol/sample and 158,17 pmol/sample.

Q: What about the “SM24:1” value (1 µM) of the same compound?
A: The value was 817,85 pmol/sample and 842,40 pmol/sample and 760,17 pmol/sample.

Q: What about the SM total (1 µM) of the same compound?
A: The SM total was 3011,74 pmol/sample and 3053,13 pmol/sample and 2833,83 pmol/sample.

Q: What about the Sph (1 µM) of the same compound?
A: The Sph was 3,57 pmol/sample and 3,81 pmol/sample and 3,42 pmol/sample.

Q: What about the “ratio total SM/Cer” value (1 µM) of the same compound?
A: The value was 16,8 and 15,4 and 15,9.

Q: And the Cer16 (2.5 µM)?
A: Its Cer16 is 74,51 pmol/sample and 82,98 pmol/sample and 79,41 pmol/sample.

Q: And the Cer18 (2.5 µM)?
A: The Cer18 was 8,90 pmol/sample and 10,02 pmol/sample and 9,50 pmol/sample.

Q: What about the Cer20 (2.5 µM) of the same compound?
A: Its Cer20 is 2,09 pmol/sample and 2,26 pmol/sample and 2,11 pmol/sample.

Q: And the Cer22 (2.5 µM)?
A: Its Cer22 is 14,83 pmol/sample and 17,07 pmol/sample and 15,69 pmol/sample.

Q: What about the Cer24 (2.5 µM) of the same compound?
A: The Cer24 was 32,62 pmol/sample and 36,00 pmol/sample and 36,33 pmol/sample.

Q: What about the “Cer24:1” value (2.5 µM) of the same compound?
A: Its value is 74,15 pmol/sample and 79,98 pmol/sample and 77,75 pmol/sample.

Q: What about the Cer total (2.5 µM) of the same compound?
A: The Cer total was 207,10 pmol/sample and 228,30 pmol/sample and 220,79 pmol/sample.

Q: What about the S1P (2.5 µM) of the same compound?
A: The S1P was 0,75 pmol/sample and 1,06 pmol/sample and 1,09 pmol/sample.

Q: And the SM16 (2.5 µM)?
A: The SM16 was 1630,84 pmol/sample and 1823,72 pmol/sample and 1666,50 pmol/sample.

Q: What about the SM18 (2.5 µM) of the same compound?
A: Its SM18 is 53,11 pmol/sample and 57,73 pmol/sample and 55,13 pmol/sample.

Q: What about the SM20 (2.5 µM) of the same compound?
A: The SM20 was 19,44 pmol/sample and 21,11 pmol/sample and 18,70 pmol/sample.

Q: What about the SM22 (2.5 µM) of the same compound?
A: The SM22 was 103,91 pmol/sample and 113,22 pmol/sample and 105,74 pmol/sample.

Q: And the SM24 (2.5 µM)?
A: Its SM24 is 157,53 pmol/sample and 168,83 pmol/sample and 156,81 pmol/sample.

Q: What about the “SM24:1” value (2.5 µM) of the same compound?
A: The value was 722,25 pmol/sample and 731,59 pmol/sample and 797,90 pmol/sample.

Q: What about the SM total (2.5 µM) of the same compound?
A: Its SM total is 2725,14 pmol/sample and 2696,43 pmol/sample and 2982,51 pmol/sample.

Q: And the Sph (2.5 µM)?
A: The Sph was 3,63 pmol/sample and 3,39 pmol/sample and 3,50 pmol/sample.

Q: What about the “ratio total SM/Cer” value (2.5 µM) of the same compound?
A: Its value is 12,3 and 13,0 and 13,1.

Q: And the Cer16 (5 µM)?
A: The Cer16 was 89,79 pmol/sample and 129,48 pmol/sample and 69,03 pmol/sample.

Q: And the Cer18 (5 µM)?
A: Its Cer18 is 7,26 pmol/sample and 11,79 pmol/sample and 5,12 pmol/sample.

Q: And the Cer20 (5 µM)?
A: The Cer20 was 1,69 pmol/sample and 2,84 pmol/sample and 1,31 pmol/sample.

Q: And the Cer22 (5 µM)?
A: The Cer22 was 12,62 pmol/sample and 18,55 pmol/sample and 9,43 pmol/sample.

Q: What about the Cer24 (5 µM) of the same compound?
A: Its Cer24 is 22,56 pmol/sample and 31,76 pmol/sample and 18,74 pmol/sample.

Q: What about the “Cer24:1” value (5 µM) of the same compound?
A: Its value is 66,19 pmol/sample and 87,40 pmol/sample and 47,19 pmol/sample.

Q: What about the Cer total (5 µM) of the same compound?
A: The Cer total was 200,11 pmol/sample and 281,82 pmol/sample and 150,81 pmol/sample.

Q: What about the S1P (5 µM) of the same compound?
A: Its S1P is 0,37 pmol/sample and 0,42 pmol/sample and 0,53 pmol/sample.

Q: And the SM16 (5 µM)?
A: Its SM16 is 450,01 pmol/sample and 691,68 pmol/sample and 345,52 pmol/sample.

Q: What about the SM18 (5 µM) of the same compound?
A: Its SM18 is 25,94 pmol/sample and 35,37 pmol/sample and 18,65 pmol/sample.

Q: What about the SM20 (5 µM) of the same compound?
A: Its SM20 is 8,48 pmol/sample and 11,39 pmol/sample and 5,85 pmol/sample.

Q: And the SM22 (5 µM)?
A: Its SM22 is 36,80 pmol/sample and 52,48 pmol/sample and 26,91 pmol/sample.

Q: What about the SM24 (5 µM) of the same compound?
A: The SM24 was 50,34 pmol/sample and 70,92 pmol/sample and 33,38 pmol/sample.

Q: And the “SM24:1” value (5 µM)?
A: The value was 200,60 pmol/sample and 298,06 pmol/sample and 137,99 pmol/sample.

Q: What about the SM total (5 µM) of the same compound?
A: Its SM total is 772,16 pmol/sample and 1159,90 pmol/sample and 568,29 pmol/sample.

Q: What about the Sph (5 µM) of the same compound?
A: Its Sph is 3,46 pmol/sample and 3,80 pmol/sample and 3,91 pmol/sample.

Q: And the “ratio total SM/Cer” value (5 µM)?
A: Its value is 3,9 and 4,1 and 3,8.
